The subject of the assay is modified version of the GPR119 receptor (94% identity to human receptor) stably expressed in HEK-293 cells. Nature of the assay: cAMP Production Assay (LANCE cAMP kit, TR-FRET). To be noted: for cAMP production in HEK-293 cells: HEK-293 cells expressing modified GPR119, test compounds 0.2 nM to 10 μM, one-hour incubation at ambient temperature; for Fold over baseline: increase in cAMP relative to basal levels, 1.5-fold or greater = agonist activity. The format is cell-based. The method in brief:
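Doxycycline-induced (1 μg/mL, overnight) HEK-293 cells expressing modified GPR119 were thawed, 2000 cells/well, and exposed to compounds (0.2 nM-10 μM final, 0.5% DMSO) for 1 h at ambient temperature in HBSS/HEPES/BSA. cAMP was measured by LANCE TR-FRET against a standard curve. Agonism was defined as ≥1.5-fold over basal.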

Results on eleven molecules are retold here after patent US20130184257A1, “PIPERIDINYL-SUBSTITUTED LACTAMS AS GPR119 MODULATORS” (priority 2010, published 2013).

Consider `CS(=O)(=O)c1ccc(O[C@H]2CCN(C3CCN(c4noc(C(F)(F)F)n4)CC3)C2=O)cn1` [Example 56, (S)-3-((6-(methylsulfonyl)pyridin-3-yl)oxy)-1-(1-(5-(trifluoromethyl)-1,2,4-oxadiazol-3-yl)piperidin-4-yl)pyrrolidin-2-one], for which the “cAMP production in HEK-293 cells” value was 21.1 nmol and the Fold over baseline was 3.3.
The corresponding values for `CS(=O)(=O)c1ccc(N[C@H]2CCN(C3CCN(c4noc(C(F)(F)F)n4)CC3)C2=O)cn1` [Example 57, (S)-3-((6-(methylsulfonyl)pyridin-3-yl)amino)-1-(1-(5-(trifluoromethyl)-1,2,4-oxadiazol-3-yl)piperidin-4-yl)pyrrolidin-2-one] are 27.2 nmol and 3.7.
On the same counts, the results for `CS(=O)(=O)c1ccc(N[C@H]2CCN(C3CCN(c4noc(C(F)F)n4)CC3)C2=O)cn1` [Example 58] are 15.8 nmol and 2.6.
On the same counts, the results for `CS(=O)(=O)c1cc(F)c(N[C@H]2CCN(C3CCN(c4nc(C(F)(F)F)no4)CC3)C2=O)cc1F` [Example 59, (S)-3-((2,5-difluoro-4-(methylsulfonyl)phenyl)amino)-1-(1-(3-(trifluoromethyl)-1,2,4-oxadiazol-5-yl)piperidin-4-yl)pyrrolidin-2-one] are 25.7 nmol and 3.9.
In the case of `CS(=O)(=O)c1cc(F)c(N[C@H]2CCN(C3CCN(c4nc(C(F)(F)F)no4)CC3)C2=O)c(F)c1` [Example 60, (S)-3-((2,6-difluoro-4-(methylsulfonyl)phenyl)amino)-1-(1-(3-(trifluoromethyl)-1,2,4-oxadiazol-5-yl)piperidin-4-yl)pyrrolidin-2-one], the “cAMP production in HEK-293 cells” value was determined as 18.1 nmol and the Fold over baseline was determined as 3.8.
The corresponding values for `CC(F)(F)c1noc(N2CCC(N3CCC[C@H](Nc4cc(F)c(S(C)(=O)=O)cc4F)C3=O)CC2)n1` [Example 61, (S)-3-((2,5-difluoro-4-(methylsulfonyl)phenyl)amino)-1′-(3-(1,1-difluoroethyl)-1,2,4-oxadiazol-5-yl)-[1,4′-bipiperidin]-2-one] are 13.6 nmol and 2.2.
On the same counts, the results for `CC(F)(F)c1noc(N2CCC(N3CCC[C@H](Nc4c(F)cc(S(C)(=O)=O)cc4F)C3=O)CC2)n1` [Example 62, (S)-3-((2,6-difluoro-4-(methylsulfonyl)phenyl)amino)-1′-(3-(1,1-difluoroethyl)-1,2,4-oxadiazol-5-yl)-[1,4′-bipiperidin]-2-one] are 16.2 nmol and 2.6.
As for `CC(F)(F)c1noc(N2CCC(N3CC[C@H](Oc4cc(F)c(S(C)(=O)=O)cc4F)C3=O)CC2)n1` [Example 63, (S)-3-(2,5-difluoro-4-(methylsulfonyl)phenoxy)-1-(1-(3-(1,1-difluoroethyl)-1,2,4-oxadiazol-5-yl)piperidin-4-yl)pyrrolidin-2-one], the “cAMP production in HEK-293 cells” value worked out at 21.6 nmol and the Fold over baseline came to 3.6.
Regarding `CC(F)(F)c1nc(N2CCC(N3CC[C@H](Nc4cc(F)c(S(C)(=O)=O)cc4F)C3=O)CC2)no1` [Example 64, (S)-3-((2,5-difluoro-4-(methylsulfonyl)phenyl)amino)-1-(1-(5-(1,1-difluoroethyl)-1,2,4-oxadiazol-3-yl)piperidin-4-yl)pyrrolidin-2-one], the “cAMP production in HEK-293 cells” value came to 15.8 nmol and the Fold over baseline amounted to 3.3.
The corresponding values for `CC(F)(F)c1nc(N2CCC(N3CC[C@H](Nc4c(F)cc(S(C)(=O)=O)cc4F)C3=O)CC2)no1` [Example 65, (S)-3-((2,6-difluoro-4-(methylsulfonyl)phenyl)amino)-1-(1-(5-(1,1-difluoroethyl)-1,2,4-oxadiazol-3-yl)piperidin-4-yl)pyrrolidin-2-one] are 16.1 nmol and 2.6.
Consider `CS(=O)(=O)c1cc(F)c(O[C@@H]2CCCN(C3CCN(c4noc(C(F)(F)F)n4)CC3)C2=O)cc1F` [Example 67, (R)-3-(2,5-difluoro-4-(methylsulfonyl)phenoxy)-1′-(5-(trifluoromethyl)-1,2,4-oxadiazol-3-yl)-[1,4′-bipiperidin]-2-one], for which the “cAMP production in HEK-293 cells” value turned out to be 43.6 nmol and the Fold over baseline came out at 3.6.
